Experimental data reported in patent US8729088B2, “Toll-like receptor modulators and treatment of diseases” (The Regents of the University of California, priority 2009, dated 2014).
“Also recorded” adds a separate entry of the source.

Tests used:
TLR7 [1] = assay: Cytokine induction in BMDM from wild type and TLR7 deficient mice; type: cell-based, mouse; conditions: BMDM from TLR7 deficient mice
Method: (§1) In vitro measurements of cytokine induction were performed using the mouse leukemic monocyte macrophage cell line, RAW264.7. […] BMDM were prepared from C57BL/6 and TLR7 deficient mice as described in Wu, C. C et al., (2007) “Immunotherapeutic activity of a conjugate of a Toll-like receptor 7 ligand”, Proc Natl Acad Sci USA 104, 3990-5.
(§2) In general, RAW264.7 cells or BMDM were incubated with various concentrations of conjugates for 18 hours at 37° C., 5% CO2 and culture supernatants were collected. The levels of cytokines (IL-6, IL-12 or TNF-α in the supernatants were determined by ELISA (BD Biosciences Pharmingen, La Jolla, Calif.) (Cho, H. J et al., “Immunostimulatory DNA-based vaccines induce cytotoxic lymphocyte activity by a T-helper cell-independent mechanism” [see comments], Nat Biotechnol 18, 509-14 (2000)), and the results presented in FIG. 2A-D. Data are mean±SEM of triplicates and are representative of three independent experiments. Minimum detection levels of these cytokines were 15 pg/mL.

[2] = system: C57BL/6 mice immunized with ovalbumin (OVA); assay: Adjuvanticity: subcutaneous immunization with OVA mixed with TLR7 conjugates; type: in vivo, mouse
Method: Each ELISA plate contained a titration of a previously quantitated serum to generate a standard curve. […] The various sera samples were tested at a 1:100 dilution.
Spleenocytes were prepared from the harvested spleens.
The efficiency of adjuvanticity was assessed by measurement of the levels and isotypes of the antigen-specific IgG that the vaccine induces, in particular IgG1 and IgG2 (Mosmann, T. R., and Coffman, R. L., ‘TH1 and TH2 cells: different patterns of lymphokine secretion lead to different functional properties’, Annual Review Immunology 7:145-73 (1989)). The groups of C57BL/6 mice (n=5 animals per group) were subcutaneously immunized with OVA (ovalbumin) mixed with TLR7 conjugates. […] Mice immunized with saline or OVA plus vehicle (0.1% DMSO) were used as negative controls.

Solubility observations = type: physicochemical
TLR7 [3] = biological target: T1, TLR7 (Mus musculus, UniProt P58681); assay: In vitro cytokine induction in murine macrophages (RAW264.7, BMDM), ELISA; type: cell-based; parameters: endogenous in cells; host or cells: RAW264.7 (ATCC); primary BMDM from C57BL/6 mice; conditions: for potency compared to the unconjugated TLR7 (SM): ELISA; for potency of cytokine induction in comparison to the unmodified TLR7 agonist: in vitro and in vivo
T1 sequence (P58681 27-1050): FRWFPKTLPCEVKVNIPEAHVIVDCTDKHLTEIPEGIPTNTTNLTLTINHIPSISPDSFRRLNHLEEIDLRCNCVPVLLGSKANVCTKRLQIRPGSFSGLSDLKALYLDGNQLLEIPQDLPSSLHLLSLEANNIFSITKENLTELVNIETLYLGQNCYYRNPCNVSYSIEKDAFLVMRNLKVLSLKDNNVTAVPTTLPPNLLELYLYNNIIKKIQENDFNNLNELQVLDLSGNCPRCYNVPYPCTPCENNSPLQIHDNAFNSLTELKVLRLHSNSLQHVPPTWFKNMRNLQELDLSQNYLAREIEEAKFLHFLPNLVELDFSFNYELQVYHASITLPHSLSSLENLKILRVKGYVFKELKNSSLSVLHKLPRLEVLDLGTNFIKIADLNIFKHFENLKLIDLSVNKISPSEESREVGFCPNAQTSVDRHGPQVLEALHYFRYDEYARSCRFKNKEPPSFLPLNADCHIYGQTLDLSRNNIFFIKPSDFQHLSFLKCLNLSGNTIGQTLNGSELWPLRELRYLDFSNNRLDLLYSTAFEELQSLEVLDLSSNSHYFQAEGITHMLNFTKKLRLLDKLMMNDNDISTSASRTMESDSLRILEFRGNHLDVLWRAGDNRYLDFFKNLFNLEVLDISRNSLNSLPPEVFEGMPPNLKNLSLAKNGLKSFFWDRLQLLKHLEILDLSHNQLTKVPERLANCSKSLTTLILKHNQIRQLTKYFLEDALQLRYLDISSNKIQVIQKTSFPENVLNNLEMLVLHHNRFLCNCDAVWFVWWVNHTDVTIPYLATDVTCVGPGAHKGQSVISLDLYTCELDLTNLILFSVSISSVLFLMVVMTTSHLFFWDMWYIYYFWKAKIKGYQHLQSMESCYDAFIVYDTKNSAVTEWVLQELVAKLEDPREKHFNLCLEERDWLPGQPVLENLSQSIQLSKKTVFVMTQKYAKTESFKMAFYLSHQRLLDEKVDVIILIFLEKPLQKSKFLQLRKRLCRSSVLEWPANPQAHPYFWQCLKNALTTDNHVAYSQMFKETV
Method: as §1, §2
TNFα levels were measured (see FIG. 2A) by incubating approximately 1×10^6/mL RAW 264.7 cells with the various conjugates or controls, as described above. IL-6 and IL12 levels were measured (see FIG. 2B-D) by incubating 0.5×10^6/mL BMDM with the various conjugates or controls, as described above.
Using a similar assay, the in vitro potency of the lipid-TLR agonist conjugates (FIG. 1, compound 6), PEG-TLR7 agonist conjugates (FIG. 1, compound 8), and PEG-lipid (FIG. 1, compound 9) conjugates were compared using a murine macrophage cell line, RAW264, and primary bone marrow derived macrophages (BMDM). The respective cells were stimulated for 18 hours with serially diluted TLR7 conjugates and the levels of cytokines released in the media were measured by ELISA and compared to the unconjugated TLR7 agonist (SM) (see FIG. 2A, panels A-D).

C57BL/6 mice [4] = assay: Serum transferred arthritis (K/BxN serum); type: in vivo, mouse
Method: The anti-inflammatory efficacy of TLR7 agonist-PEG conjugates was tested in mouse models of human inflammatory diseases (serum transfer arthritis, experimental allergic encephalomyelitis (EAE) (see above), and thioglycollate induced peritonitis).

C57BL/6 mice [5] = assay: MOG induced experimental autoimmune encephalomyelitis (EAE)
Method: The effect of compound (8) on experimental autoimmune encephalomyelitis (EAE) was determined using C57BL/6 mice treated with myelin oligodendrocyte glycoprotein (MOG).
Treatment with MOG (or MOG peptides) may be used to induce EAE. Mice were treated with MOG protein for 6 days. On day 6 and onward (see FIG. 8), 50 nmoles of compound (8) or PBS were intravenously (i.v.) injected everyday. EAE clinical scores were used as a clinical metric for demyelination and were determined visually.
MOG protein was also used to evaluate potential adverse effect of various TLR7 conjugates, as described above. Evaluation of the results were by observation of various symptoms associated with MOG induced EAE (e.g., brain inflammation, demyelination of neurons and the like).

C57BL/6 mice [6] = assay: Thioglycolate induced peritonitis (peritoneal neutrophil infiltration); conditions: for cell infiltration, particularly neutrophil, to the peritoneal cavity: three days
Method: Peritoneal cells were collected four hours after TG injection. Total cells were counted by haematocytometer and neutrophils were morphologically identified.
4 hours post TG injection total peritoneal cells were harvested and counted. Neutrophils were identified morphologically and counted.
One day after the last treatment, mice received intraperitoneal injection of 2 ml thioglycollate medium. […] Three hours after the thioglycollate injection, neutrophil infiltration to the peritoneum was evaluated.

[7] = 50 nmoles i.v. for three days before thioglycolate

dissolution in suitable solvents for testing (Solubility observations) | potency as a cytokine inducer compared to the unconjugated agonist (TLR7 [3]; normalized to the molar level of the unconjugated agonist, RAW264, BMDM, 18 hours) [fold] | solubility in aqueous solution (Solubility observations) | potency of cytokine induction in comparison to the unmodified TLR7 agonist (TLR7 [3]) | SMILES | IL-12 and IL-6 induction (TLR7 [1]) | onset of induction of anti-OVA antibodies ([2]; OVA mixed with conjugate, s.c., days 0 and 7) [days] | OVA-specific IFNγ secretion by spleen cells ([2]; day 56 splenocytes restimulated with OVA) | anti-OVA IgG2a levels ([2]; serum, ELISA, days 0-56) | paw swelling (C57BL/6 mice [4]; daily gavage) | paw swelling (C57BL/6 mice [4]; daily subcutaneous injection) | EAE clinical score / severity of symptoms (C57BL/6 mice [5]; 50 nmoles i.v. every day from day 6, days 11-17) | adverse reaction (C57BL/6 mice [5]; mouse, in vivo) | neutrophils recruited to the peritoneum (C57BL/6 mice [6]; [7]) | total cells recruited to the peritoneum (C57BL/6 mice [6]; [7]) | adverse reaction compared to TG (C57BL/6 mice [6]; mouse, in vivo) | cell infiltration, particularly neutrophil, to the peritoneal cavity (C57BL/6 mice [6]; oral route) | cell infiltration, particularly neutrophil, to the peritoneal cavity (C57BL/6 mice [6]; systemic (intravenous) route) | potency compared to the unconjugated TLR7 (SM) (TLR7 [3]; RAW264, BMDM, 18 hours) | Th1 response (IgG2a levels) ([2]; mouse, in vivo) | Th2 immune response (IgG1 levels) ([2]; mouse, in vivo)
difficulty in dissolution | 10 |  |  | CCCCCCCC/C=C\CCCCCCCC(=O)OCC(COP(=O)(O)OCCNC(=O)c1ccc(Cn2c(=O)[nH]c3c(N)nc(OCCOC)nc32)cc1)OC(=O)CCCCCCC/C=C\CCCCCCCC (stereo not drawn) [Compound 6, 2-(4-((6-amino-2-(2-methoxyethoxy)-8-oxo-7H-purin-9(8H)-yl)methyl)benzamido)ethyl 2,3-bis(oleoyloxy)propyl phosphate] | little or no IL-12 and IL-6 | 14 | enhanced | continuously increased; also recorded: rapid elevation; also recorded: sustained and further accelerated levels |  |  |  |  |  |  |  |  |  |  |  | 
 |  | improves dramatically | attenuated | COCCOc1nc(N)c2nc(O)n(Cc3ccc(C(=O)NCCOCCOCCOCCOCCOCCOCCOCCOCCOCCOCCn4cc(CCC(=O)O)nn4)cc3)c2n1 [Compound 8, 3-(1-(1-(4-((6-amino-8-hydroxy-2-(2-methoxyethoxy)-9H-purin-9-yl)methyl)phenyl)-1-oxo-5,8,11,14,17,20,23,26,29,32-decaoxa-2-azatetratriacontan-34-yl)-1H-1,2,3-triazol-4-yl)propanoic acid] | little or no IL-12 and IL-6 |  |  |  | reduced paw swelling | reduced paw swelling | significantly reduces the severity of EAE symptoms | no additional adverse reaction | reduction | reduction | no additional adverse reaction | reduced cell infiltration | reduced cell infiltration | less potency |  | 
 |  |  | restored | CCCCCCCC/C=C\CCCCCCCC(=O)OCC(COP(=O)(O)OCCNC(=O)CCc1cn(CCOCCOCCOCCOCCOCCOCCOCCOCCOCCOCCNC(=O)c2ccc(Cn3c(O)nc4c(N)nc(OCCOC)nc43)cc2)nn1)OC(=O)CCCCCCC/C=C\CCCCCCCC (stereo not drawn) [Compound 9, 2-(3-(1-(1-(4-((6-amino-8-hydroxy-2-(2-methoxyethoxy)-9H-purin-9-yl)methyl)phenyl)-1-oxo-5,8,11,14,17,20,23,26,29,32-decaoxa-2-azatetratriacontan-34-yl)-1H-1,2,3-triazole-4-yl)propanamido)ethyl 2,3-bis(oleoyloxy)propyl phosphate] | little or no IL-12 and IL-6 |  |  |  |  |  |  |  |  |  |  |  |  | restored their potency to the similar level of the unconjugated TLR7 (SM) | minimal Th1 response | induce a Th2 immune response
